# What was measured:
# Experiment in all cases: Cell survival rate, cell experiment in vitro (MTT)
# [1] = tested on: paclitaxel-resistant human ovarian cancer cell line (A2780/T)
# Experimental: (§1) Assay of cell experiment in vitro: tumor cells at logarithmic growth phase were collected, resuspended in a DMEM complete culture-medium (containing 10% fetal bovine serum, 100 U/ml penicillin, 100 μg/ml streptomycin) and a final concentration was 4×10^4 cells/ml. In a 96-well cell culture plate, 200 μl above cell suspension was added into each well (8×10^3 cells/well), and cultured for 48 h in a cell incubator at 37° C. filled with 5% CO2. The DMEM complete culture-medium was respectively replaced with 200 μL antitumor drug with different concentrations. The final concentrations of the drugs were set no less than six groups. The DMEM complete culture-medium was as the negative control group. Each concentration was set 4 wells and the experiment was repeated for 3 times. 20 μl 5 mg/mL MTT solution was added into each well after the cells were cultured for 72 h in a cell incubator at 37° C. filled with 5% CO2. The supernatant was discarded after it was further cultured for 4 h in a cell incubator. 150 μl DMSO was added into each well, shaked for 10 min. An OD was determined at 490 nm by a continuous spectrum multifunctional microplate reader (Tecan infinite M 200 TECAN, Switzerland). The cell survival rate was calculated by the following formula: (the cell survival rate (%)=ODdrug/ODcontrol×100%). Cell survival rate (%)=OD490(sample)/OD490(control)×100%;
# (§2) Wherein OD490(sample) is the OD of the experimental group, OD490(control) is the OD of the blank control group.
# [2] = tested on: human ovarian cancer cell line (A2780)
# Experimental: as §1, §2
# [3] = tested on: paclitaxel-resistant human pancreatic cancer cell line (BxPC-3/T); type: cell-based
# Experimental: The new recovery BxPC-3 cells were cultured for two generations or three generations under conventional conditions to make the cells grow stably.
compound,measurement,setting,value
"CC(=O)O[C@H]1C(=O)[C@@]2(C)[C@H]([C@H](OC(=O)c3ccccc3)[C@]3(O)C[C@H](OC(=O)[C@H](O)[C@@H](NC(=O)c4ccccc4)c4ccccc4)C(C)=C1C3(C)C)[C@]1(OC(C)=O)CO[C@@H]1C[C@@H]2O [Taxol, paclitaxel]",Cell Viability,"[1]; C (μM): Taxol + Rg5 1.5625 + 9.375, Taxol 1.5625, Blank Rg5 9.375, Abraxane 1.5625",0.856
same,Cell Viability,"[1]; C (μM): Taxol + Rg5 6.25 + 37.5, Taxol 6.25, Blank Rg5 37.5, Abraxane 6.25",0.654
same,Cell Viability,"[1]; C (μM): Taxol + Rg5 12.5 + 75, Taxol 12.5, Blank Rg5 75, Abraxane 12.5",0.393
same,Cell Viability,"[1]; C (μM): Taxol + Rg5 400 + 2400, Taxol 400, Blank Rg5 2400, Abraxane 400",0.139
same,Cell Viability,"[2]; C (μM): Taxol + Rg5 0.001953 + 0.011719, Taxol 0.001953, Blank Rg5 0.011719, Abraxane 0.001953",0.866
same,Cell Viability,"[2]; C (μM): Taxol + Rg5 0.007813 + 0.046875, Taxol 0.007813, Blank Rg5 0.046875, Abraxane 0.007813",0.818
same,Cell Viability,"[2]; C (μM): Taxol + Rg5 0.015625 + 0.09375, Taxol 0.015625, Blank Rg5 0.09375, Abraxane 0.015625",0.673
same,Cell Viability,"[2]; C (μM): Taxol + Rg5 0.03125 + 0.1875, Taxol 0.03125, Blank Rg5 0.1875, Abraxane 0.03125",0.443
same,Cell Viability,"[2]; C (μM): Taxol + Rg5 0.25 + 1.5, Taxol 0.25, Blank Rg5 1.5, Abraxane 0.25",0.204
same,Cell Viability,"[2]; C (μM): Taxol + Rg5 0.5 + 3, Taxol 0.5, Blank Rg5 3, Abraxane 0.5",0.185
same,Cell Viability,"[2]; C (μM): Taxol + Rg5 1 + 6, Taxol 1, Blank Rg5 6, Abraxane 1",0.133
same,Cell Viability,"[3]; C (μM): Taxol + Rg5 1.5625 + 9.375, Taxol 1.5625, Blank Rg5 9.375",0.85
same,Cell Viability,"[3]; C (μM): Taxol + Rg5 12.5 + 75, Taxol 12.5, Blank Rg5 75",0.639
same,Cell Viability,"[3]; C (μM): Taxol + Rg5 25 + 150, Taxol 25, Blank Rg5 150",0.454
same,Cell Viability,"[3]; C (μM): Taxol + Rg5 50 + 300, Taxol 50, Blank Rg5 300",0.272
same,Cell Viability,"[3]; C (μM): Taxol + Rg5 200 + 1200, Taxol 200, Blank Rg5 1200",0.15
same,Cell Viability,"[3]; C (μM): Taxol + Rg5 400 + 2400, Taxol 400, Blank Rg5 2400",0.134

# — patent US10639276B2, “Liposomes with ginsenoside as membrane material and preparations and use thereof” (SHANGHAI GINPOSOME PHARMATECH CO., LTD., priority 2015, dated 2020)
